Experimental data as given in ChEMBL document CHEMBL5360532, “Current scenario of quinolone hybrids with potential antibacterial activity against ESKAPE pathogens” (Eur J Med Chem, 2023).
≈ marks a conversion by molar mass, not a printed value.

Experiments:
Staphylococcus aureus [1] = assay: Antibacterial activity against Staphylococcus aureus assessed as zone of inhibition at 50 mg/ml cup plate assay; type: functional; settings: read-out: IZ
Escherichia coli [2] = assay: Antibacterial activity against Escherichia coli assessed as zone of inhibition at 50 mg/ml cup plate assay; type: functional; settings: read-out: IZ
[3] = test system: Mycobacterium tuberculosis; assay: Antimycobacterial activity against Mycobacterium tuberculosis H37Rv assessed as bacterial growth inhibition by LJ slant assay; type: functional
[4] = test system: Mycobacterium tuberculosis; assay: Antimycobacterial activity against multidrug Mycobacterium tuberculosis assessed as bacterial growth inhibition by LJ slant assay; type: functional
[5] = test system: Mycobacterium tuberculosis; assay: Antimycobacterial activity against extensive drug Mycobacterium tuberculosis assessed as bacterial growth inhibition by LJ slant assay; type: functional
[6] = test system: Mycobacterium tuberculosis; assay: Potency index, ratio of ciprofloxacin MIC to test compound MIC for antimycobacterial activity against Mycobacterium tuberculosis H37Rv assessed as bacterial growth inhibition by LJ slant assay; type: functional
Staphylococcus aureus [7] = assay: Antibacterial activity against Staphylococcus aureus Newman assessed as bacterial growth inhibition by agar diffusion assay; type: functional
Escherichia coli [8] = assay: Antibacterial activity against Escherichia coli DSM-1116 assessed as bacterial growth inhibition by agar diffusion assay; type: functional
Escherichia coli [9] = assay: Antibacterial activity against efflux deficient Escherichia coli TolC assessed as bacterial growth inhibition by agar diffusion assay; type: functional
Pseudomonas aeruginosa [10] = assay: Antibacterial activity against efflux deficient Pseudomonas aeruginosa PA14 assessed as bacterial growth inhibition by agar diffusion assay; type: functional
Pseudomonas aeruginosa [11] = assay: Antibacterial activity against efflux deficient Pseudomonas aeruginosa DSM-30104 assessed as bacterial growth inhibition by agar diffusion assay; type: functional
Proteus mirabilis = assay: Antibacterial activity against efflux deficient Proteus mirabilis DSM-4479 assessed as bacterial growth inhibition by agar diffusion assay; type: functional
Staphylococcus aureus [12] = assay: Antibacterial activity against Staphylococcus aureus assessed as bacterial growth inhibition measured after 16 to 24 hrs by broth microdilution assay; type: functional; settings: time 16-24 hrs
Staphylococcus aureus [13] = assay: Antibacterial activity against methicillin resistant Staphylococcus aureus assessed as bacterial growth inhibition measured after 16 to 24 hrs by broth microdilution assay; type: functional; settings: time 16-24 hrs
Enterococcus = assay: Antibacterial activity against vancomycin resistant Enterococcus assessed as bacterial growth inhibition measured after 16 to 24 hrs by broth microdilution assay; type: functional; settings: time 16-24 hrs
Streptococcus pneumoniae [14] = assay: Antibacterial activity against Streptococcus pneumoniae assessed as bacterial growth inhibition measured after 16 to 24 hrs by broth microdilution assay; type: functional; settings: time 16-24 hrs
Streptococcus agalactiae = assay: Antibacterial activity against Streptococcus agalactiae assessed as bacterial growth inhibition measured after 16 to 24 hrs by broth microdilution assay; type: functional; settings: time 16-24 hrs
Enterococcus faecalis [15] = assay: Antibacterial activity against Enterococcus faecalis assessed as bacterial growth inhibition measured after 16 to 24 hrs by broth microdilution assay; type: functional; settings: time 16-24 hrs
Haemophilus influenzae = assay: Antibacterial activity against Haemophilus influenzae assessed as bacterial growth inhibition measured after 16 to 24 hrs by broth microdilution assay; type: functional; settings: time 16-24 hrs
Staphylococcus aureus [16] = assay: Antibacterial activity against Staphylococcus aureus clinical isolates assessed as bacterial growth inhibition measured after 16 to 24 hrs by broth microdilution assay; type: functional; settings: time 16-24 hrs
[17] = test system: Staphylococcus haemolyticus; assay: Antibacterial activity against Staphylococcus haemolyticus clinical isolates assessed as bacterial growth inhibition measured after 16 to 24 hrs by broth microdilution assay; type: functional; settings: time 16-24 hrs
[18] = test system: Staphylococcus epidermidis; assay: Antibacterial activity against Staphylococcus epidermidis clinical isolates assessed as bacterial growth inhibition measured after 16 to 24 hrs by broth microdilution assay; type: functional; settings: time 16-24 hrs
Streptococcus suis = assay: Antibacterial activity against Streptococcus suis clinical isolates assessed as bacterial growth inhibition measured after 16 to 24 hrs by broth microdilution assay; type: functional; settings: time 16-24 hrs
Streptococcus pneumoniae [19] = assay: Antibacterial activity against Streptococcus pneumoniae clinical isolates assessed as bacterial growth inhibition measured after 16 to 24 hrs by broth microdilution assay; type: functional; settings: time 16-24 hrs
Enterococcus faecalis [20] = assay: Antibacterial activity against Enterococcus faecalis clinical isolates assessed as bacterial growth inhibition measured after 16 to 24 hrs by broth microdilution assay; type: functional; settings: time 16-24 hrs
Enterococcus faecium = assay: Antibacterial activity against Enterococcus faecium clinical isolates assessed as bacterial growth inhibition measured after 16 to 24 hrs by broth microdilution assay; type: functional; settings: time 16-24 hrs
Haemophilus parasuis = assay: Antibacterial activity against Haemophilus parasuis clinical isolates assessed as bacterial growth inhibition measured after 16 to 24 hrs by broth microdilution assay; type: functional; settings: Glaesserella parasuis; time 16-24 hrs
[21] = test system: Mycobacterium tuberculosis; assay: Antimycobacterial activity against Mycobacterium tuberculosis H37Rv assessed as zone of inhibition at 50 mg/ml by agar well diffusion assay; type: functional; settings: read-out: IZ
Staphylococcus aureus [22] = assay: Antibacterial activity against Staphylococcus aureus assessed as zone of inhibition at 50 mg/ml by agar well diffusion assay; type: functional; settings: read-out: IZ
Escherichia coli [23] = assay: Antibacterial activity against Escherichia coli assessed as zone of inhibition at 50 mg/ml by agar well diffusion assay; type: functional; settings: read-out: IZ
Enterococcus faecalis [24] = assay: Antibacterial activity against Enterococcus faecalis assessed as zone of inhibition at 50 mg/ml by agar well diffusion assay; type: functional; settings: read-out: IZ
Streptococcus pneumoniae [25] = assay: Antibacterial activity against Streptococcus pneumoniae assessed as zone of inhibition at 50 mg/ml by agar well diffusion assay; type: functional; settings: read-out: IZ
[26] = test system: Mycobacterium tuberculosis; assay: Antimycobacterial activity against Mycobacterium tuberculosis H37Rv assessed as bacterial growth inhibition; type: functional
Escherichia coli [27] = assay: Antibacterial activity against Escherichia coli ATCC 10536 assessed as bacterial growth inhibition measured after 24 to 48 hrs by agar dilution assay; type: functional; settings: time 24-48 hrs
Pseudomonas aeruginosa [28] = assay: Antibacterial activity against Pseudomonas aeruginosa ATCC 11632 assessed as bacterial growth inhibition measured after 24 to 48 hrs by agar dilution assay; type: functional; settings: time 24-48 hrs
[29] = Anticancer activity against EAC cell assessed as cell growth inhibition measured after 24 to 72 hrs by MTT assay; type: functional, cell-based; settings: Ehrlich
MCF7 = assay: Anticancer activity against human MCF7 cell assessed as cell growth inhibition measured after 24 to 72 hrs by MTT assay; type: functional, cell-based
HT-29 = assay: Anticancer activity against human HT-29 cell assessed as cell growth inhibition measured after 24 to 72 hrs by MTT assay; type: functional, cell-based
WRL68 = assay: Anticancer activity against human WRL68 cell assessed as cell growth inhibition measured after 24 to 72 hrs by MTT assay; type: functional, cell-based
Staphylococcus aureus [30] = assay: Antibacterial activity against Staphylococcus aureus MTCC 737 assessed as bacterial growth inhibition measured after 24 hrs by microdilution assay; type: functional
Staphylococcus aureus [31] = assay: Antibacterial activity against Staphylococcus aureus MLS16 MTCC 2940 assessed as bacterial growth inhibition measured after 24 hrs by microdilution assay; type: functional
Escherichia coli [32] = assay: Antibacterial activity against Escherichia coli MTCC 1687 assessed as bacterial growth inhibition measured after 24 hrs by microdilution assay; type: functional
Pseudomonas aeruginosa [33] = assay: Antibacterial activity against Pseudomonas aeruginosa MTCC 424 assessed as bacterial growth inhibition measured after 24 hrs by microdilution assay; type: functional
Escherichia coli [34] = assay: Potency index, ratio of ciprofloxacin MIC to test compound MIC for antimicrobial activity against Escherichia coli MTCC 1687 assessed as bacterial growth inhibition measured after 24 hrs by microdilution assay; type: functional
Staphylococcus aureus [35] = assay: Potency index, ratio of ciprofloxacin MIC to test compound MIC for antimicrobial activity against Staphylococcus aureus MLS16 MTCC 2940 assessed as bacterial growth inhibition measured after 24 hrs by microdilution assay; type: functional
Staphylococcus aureus [36] = assay: Potency index, ratio of ciprofloxacin MIC to test compound MIC for antimicrobial activity against Staphylococcus aureus MTCC 424 assessed as bacterial growth inhibition measured after 24 hrs by microdilution assay; type: functional
Escherichia coli [37] = assay: Antibacterial activity against Escherichia coli assessed as bacterial growth inhibition by broth microdilution assay; type: functional
Pseudomonas aeruginosa [38] = assay: Antibacterial activity against Pseudomonas aeruginosa assessed as bacterial growth inhibition by broth microdilution assay; type: functional
Acinetobacter baumannii = assay: Antibacterial activity against Acinetobacter baumannii assessed as bacterial growth inhibition by broth microdilution assay; type: functional
Klebsiella pneumoniae = assay: Antibacterial activity against Klebsiella pneumoniae assessed as bacterial growth inhibition by broth microdilution assay; type: functional
Escherichia coli [39] = assay: Antibacterial activity against Escherichia coli ATCC 25922 assessed as bacterial growth inhibition by agar dilution assay; type: functional
Staphylococcus aureus [40] = assay: Antibacterial activity against Staphylococcus aureus ATCC 6538p assessed as bacterial growth inhibition by agar dilution assay; type: functional

O=c1c(-c2nnc(S)o2)cn(C2CC2)c2cc(N3CCNCC3)c(F)cc12
zone of inhibition at 50000 µg/mL (Staphylococcus aureus [1]): 13 mm | zone of inhibition at 50000 µg/mL (Escherichia coli [2]): 12 mm | MIC [3]: 0.063 µg/mL (≈ 0.163 µM) | MIC [4]: 0.063 µg/mL (≈ 0.163 µM) | MIC [5]: 0.063 µg/mL (≈ 0.163 µM) | Ratio [6]: >=32

N#Cc1c(-c2ccccc2)nc(SCC(=O)N2CCN(c3cc4c(cc3F)c(=O)c(C(=O)O)cn4C3CC3)CC2)[nH]c1=O
MIC (Staphylococcus aureus [7]): ≤ 0.03 µg/mL | MIC (Escherichia coli [8]): ≤ 0.03 µg/mL | MIC (Escherichia coli [9]): ≤ 0.03 µg/mL | MIC (Pseudomonas aeruginosa [10]): ≤ 0.03 µg/mL | MIC (Pseudomonas aeruginosa [11]): ≤ 0.03 µg/mL | MIC (Proteus mirabilis): ≤ 0.03 µg/mL

C[C@H]1CCc2c(N3CCC(O)(COc4ccc(N5C[C@H](CO)OC5=O)cc4F)CC3)c(F)cc3c(=O)c(C(=O)O)cn1c23
MIC (Staphylococcus aureus [12]): 0.016 µg/mL (≈ 0.0267 µM) | MIC (Staphylococcus aureus [13]): 0.016 µg/mL (≈ 0.0267 µM) | MIC (Enterococcus): 0.016 µg/mL (≈ 0.0267 µM) | MIC (Streptococcus pneumoniae [14]): 0.016 µg/mL (≈ 0.0267 µM) | MIC (Streptococcus agalactiae): 0.016 µg/mL (≈ 0.0267 µM) | MIC (Enterococcus faecalis [15]): 0.016 µg/mL (≈ 0.0267 µM) | MIC (Haemophilus influenzae): 0.016 µg/mL (≈ 0.0267 µM) | MIC (Staphylococcus aureus [16]): ≤ 0.063 µg/mL | MIC [17]: ≤ 0.063 µg/mL | MIC [18]: ≤ 0.063 µg/mL | MIC (Streptococcus suis): ≤ 0.063 µg/mL | MIC (Streptococcus pneumoniae [19]): ≤ 0.063 µg/mL | MIC (Enterococcus faecalis [20]): ≤ 0.063 µg/mL | MIC (Enterococcus faecium): ≤ 0.063 µg/mL | MIC (Haemophilus parasuis): ≤ 0.063 µg/mL

CCn1cc(-c2nnc(S(=O)(=O)Cc3ccc(OC)cc3)o2)c(=O)c2cc(F)c(N3CCN(C)CC3)cc21
zone of inhibition at 50000 µg/mL [21]: 26 mm | zone of inhibition at 50000 µg/mL (Staphylococcus aureus [22]): 26 mm | zone of inhibition at 50000 µg/mL (Escherichia coli [23]): 26 mm | zone of inhibition at 50000 µg/mL (Enterococcus faecalis [24]): 26 mm | zone of inhibition at 50000 µg/mL (Streptococcus pneumoniae [25]): 26 mm | MIC [26]: 16.2 µg/mL (≈ 29.9 µM)

O=C(CNc1ccc(-c2nc3ccc(Cl)c(Cl)c3s2)cc1)c1c(O)c2ccccc2n(-c2ccccc2)c1=O
MIC (Escherichia coli [27]): 0.5 µg/mL (≈ 0.873 µM) | MIC (Pseudomonas aeruginosa [28]): 1 µg/mL (≈ 1.75 µM) | IC50 [29]: 398 nM | IC50 (MCF7): 398 nM | IC50 (HT-29): 398 nM | IC50 (WRL68): 398 nM

COc1ccc(-c2cc(-c3c(O)c4ccccc4[nH]c3=O)nc(N)c2C#N)cc1
MIC (Staphylococcus aureus [30]): 2.34 µg/mL (≈ 6.09 µM) | MIC (Staphylococcus aureus [31]): 2.34 µg/mL (≈ 6.09 µM) | MIC (Escherichia coli [32]): 2.34 µg/mL (≈ 6.09 µM) | MIC (Pseudomonas aeruginosa [33]): 2.34 µg/mL (≈ 6.09 µM) | Ratio (Escherichia coli [34]): 2 | Ratio (Staphylococcus aureus [35]): 2 | Ratio (Staphylococcus aureus [36]): 2

Cc1[nH]c(C(=O)Nc2nc3ccc(NC(=O)CCN4CCN(c5cc6c(cc5F)c(=O)c(C(=O)O)cn6C5CC5)CC4)cc3s2)c(Cl)c1Cl
MIC (Escherichia coli [37]): 0.004 µg/mL (≈ 0.0055 µM) | MIC (Pseudomonas aeruginosa [38]): 0.25 µg/mL (≈ 0.344 µM) | MIC (Acinetobacter baumannii): 0.25 µg/mL (≈ 0.344 µM) | MIC (Klebsiella pneumoniae): 0.25 µg/mL (≈ 0.344 µM)

Cc1cc(N2CCN(c3cc4c(cc3F)c(=O)c(C(=O)O)cn4C3CC3)CC2)nc(Cl)n1
MIC (Escherichia coli [39]): 10.5 µg/mL (≈ 22.9 µM) | MIC (Staphylococcus aureus [40]): 7.4 µg/mL (≈ 16.2 µM)
